{
  "source": "patent US20260355136A1",
  "about": "“PROSTACYCLIN FOR TREATING PULMONARY HYPERTENSION” (Shanghai Forefront Pharma Co., Ltd., priority 2023, published 2026)",
  "format_in_all_cases": "in vivo, male Sprague-Dawley rats",
  "key": {"MCT modeling rats [1]": {"test_system": "MCT modeling rats", "test": "Hemodynamic measurement of right ventricular systolic pressure (RVSP) by right cardiac catheterization in MCT-modeled rats", "method": "(§1) Twenty-eight 7-week-old male Sprague-Dawley rats (average weight of 200-250 g) were purchased from Vital River and were raised at the experimental site for 1 week of acclimatization (temperature 20 °C-26 °C, humidity 30%-70%, light-dark cycle ratio 1:1) until they were 8 weeks old.\n(§2) Twenty-eight rats were randomized into the following 6 groups, including dosing groups, positive control groups, a negative control group and a healthy control group, and each was marked with ear tags.\n(§3) • (1) Preparation of monocrotaline (MCT) solution: An adequate amount of MCT was weighed into a 50 mL solution of 20% ethanol-normal saline. After gentle shaking, the solution was transferred to a 50-mL centrifuge tube, and placed tilted in a thermostatic shaker at 37 °C, 220 rpm for 12-14 hours to fully dissolve until no visible crystalline particles observed. • (2) Injection of MCT solution: The skin on the dorsal cervical region of the rats was gently lifted, MCT solution was subcutaneously injected at a dose of 60 mg/kg using a 1-mL syringe and the day was recorded as Day 0. • (3) Healthy control: The same volume of normal saline was injected in the same manner. […]\n(§4) Starting from Day 14, the rats were weighed daily, and the corresponding solutions (test compound or normal saline) were administered intragastrically according to the grouping protocol until Day 27, for a total of 14 days; the intragastric dose was 0.5 mL/100 g, and the body weight and survival data of the rats were recorded. […]\n(§5) Note: Due to the limited total amount of Compound 1, rats in Group 1 were actually administered for 13 days, rats in Group 2 were actually administered for 12 days, and all were measured and sampled on Day 27; rats in Groups 3-6 were actually administered for 14 days, and all were measured and sampled on Day 27.\n(§6) Rats in Groups 3-6 were actually administered for 14 days, and all were measured and sampled on Day 27. […]"}, "MCT modeling rats [2]": {"test_system": "MCT modeling rats", "test": "Fulton index (RV/(LV+S)) measurement in MCT-modeled rats", "method": "The Fulton index reflects the organ remodeling caused by PAH. […] This is a goal that current pharmaceutical drugs for treating PAH cannot achieve, but one that new drugs for PAH aim to reach.\nas §1, §2, §3, §4\nAfter separating the heart, the non-ventricular parts (such as the atria, blood vessels, and valve rings) were cut off. […] RV/(LV+S) was calculated as the Fulton index. […]\nas §6"}, "[3]": {"test": "Body weight of MCT-modeled rats", "details": "intragastric; for Body weight on Day 0: Day 0 = MCT injection, before dosing; for Body weight on Day 14: Day 14 = start of dosing; for Body weight at sampling: sampled on Day 27", "method": "as §1, §2\n• (1) Preparation of monocrotaline (MCT) solution: An adequate amount of MCT was weighed into a 50 mL solution of 20% ethanol-normal saline. After gentle shaking, the solution was transferred to a 50-mL centrifuge tube, and placed tilted in a thermostatic shaker at 37 °C, 220 rpm for 12-14 hours to fully dissolve until no visible crystalline particles observed. • (2) Injection of MCT solution: The skin on the dorsal cervical region of the rats was gently lifted, MCT solution was subcutaneously injected at a dose of 60 mg/kg using a 1-mL syringe and the day was recorded as Day 0. • (3) Healthy control: The same volume of normal saline was injected in the same manner.\nAccording to the concentration of 0.6 mg/mL and 1.2 mg/mL (3-mg/kg/day and 6-mg/kg/day dose groups), appropriate amounts of the test compound were weighed and dissolved in corresponding volume of pure water by shaking to obtain transparent solution, respectively; • (2) The resulting solutions were stored in a 4 °C refrigerator. Remove and equilibrate to room temperature before use;\nStarting from Day 14, the rats were weighed daily, and the corresponding solutions (test compound or normal saline) were administered intragastrically according to the grouping protocol until Day 27, for a total of 14 days; the intragastric dose was 0.5 mL/100 g, and the body weight and survival data of the rats were recorded.\nas §5"}},
  "data": [
    {"smiles": "CCCCC[C@H](O)CC[C@@H]1[C@H]2Cc3cccc(OCC(=O)O)c3C[C@H]2C[C@H]1O", "note": "[Compound C1, Treprostinil sodium 5.5-hydrate]", "values": [
      {"measurement": "RVSP compared with healthy control group", "setting": "MCT modeling rats [1]; 3 and 6 mg/kg", "value": "still higher than that in the healthy control group"},
      {"measurement": "RVSP reduction in rats", "setting": "MCT modeling rats [1]; 3 and 6 mg/kg", "value": "can significantly reduce RVSP in rats"},
      {"measurement": "RVSP, difference between dosing groups", "setting": "MCT modeling rats [1]; 6 vs 3 mg/kg", "value": "no significant difference in the effects between the two dosing groups"},
      {"measurement": "Fulton index compared with healthy control group", "setting": "MCT modeling rats [2]; 3 and 6 mg/kg", "value": "still higher than that of the healthy control group"},
      {"measurement": "Fulton index reduction of rat heart", "setting": "MCT modeling rats [2]; 3 and 6 mg/kg", "value": "can significantly reduce the Fulton index of rat heart"},
      {"measurement": "Fulton index, difference between dosing groups", "setting": "MCT modeling rats [2]; 6 vs 3 mg/kg", "value": "no significant difference in the effects between the two dosing groups"},
      {"measurement": "Body weight on Day 0", "setting": "[3]; 3 mg/kg/day group", "value": "330 + 25.11 g"},
      {"measurement": "Body weight on Day 14", "setting": "[3]; 3 mg/kg/day group", "value": "430 + 34.15 g"},
      {"measurement": "Body weight at sampling", "setting": "[3]; 3 mg/kg/day", "value": "431 + 58.03 g"},
      {"measurement": "Body weight on Day 0", "setting": "[3]; 6 mg/kg/day group", "value": "316 + 4.35 g"},
      {"measurement": "Body weight on Day 14", "setting": "[3]; 6 mg/kg/day group", "value": "413 + 15.81 g"},
      {"measurement": "Body weight at sampling", "setting": "[3]; 6 mg/kg/day", "value": "436 + 9.65 g"}
    ]}
  ]
}
